Laboratory results reported in US10376520B2, “Methods for the treatment of cardiovascular disorders” (Galapagos NV, priority 2015, dated 2019).

System: RA patients
Test: LDL determination, Study 1 (RA patients, add-on to MTX)
Format: in vivo, human
Procedure: Double-blind, placebo-controlled add on study in subjects with moderately to severely active RA who have an inadequate response to methotrexate (MTX) (oral or parenteral).
595 subjects randomized to one of 6 dose regimens of Compound 1 (dosed as a [Compound 1:HCl:3H2O]) (3 dose levels administered either once or twice daily) or placebo on top of each subject's stable dose of MTX.
Compound 1 (dosed as a [Compound 1:HCl:3H2O]) is dosed for twelve weeks once daily (q.d.) (50 mg, 100 mg or 200 mg) or twice daily (b.i.d.) (25 mg, 50 mg or 100 mg); or placebo.
At Week 12, the subjects on placebo who have not achieved 20% improvement in swollen joint count (SJC66) and tender joint count (TJC68) are re-randomized automatically to receive Compound 1 (dosed as a [Compound 1:HCl:3H2O]) either at 100 mg q.d. or 50 mg b.i.d. doses in a blinded fashion; subjects on 50 mg q.d. who have not achieved 20% improvement in SJC66 and TJC68 will be assigned to 100 mg q.d. and subjects on 25 mg b.i.d. that have not achieved a 20% improvement in SJC66 and TJC68 will be assigned to 50 mg b.i.d. Subjects who switch treatment at week 12 are handled as if they discontinued at week 12 for the purpose of statistical analysis, whereas subjects in the other groups will maintain their randomized treatment until Week 24.
The determination of [LDL]-cholesterol is made using an automated method taking advantage of the selective micellary solubilization of [LDL]-cholesterol by a nonionic detergent and the interaction of a sugar compound and lipoproteins (VLDL and chylomicrons).
When a detergent is included in the enzymatic method for cholesterol determination (cholesterol esterase, cholesterol oxidase coupling reaction), the relative reactivities of cholesterol in the lipoprotein fractions increase in this order: [HDL]<chylomicrons <VLDL <[LDL]. In the presence of Mg^2+, a sugar compound markedly reduces the enzymatic reaction of the cholesterol measurement in VLDL and chylomicrons. The combination of a sugar compound with detergent enables the selective determination of [LDL]-cholesterol in serum. (Friedewald et al., 1972; Rifai et al., 1992)
Homogeneous enzymatic colorimetric assay.
In the presence of peroxidase, the hydrogen peroxide generated reacts with 4-aminoantipyrine and Sodium N-(2-hydroxy-3-sulfopropyl)-3,5-dimethoxyaniline (HSDA) to form a purple-blue dye.
The color intensity of this dye is directly proportional to the cholesterol concentration and is measured photometrically.
Human serum and plasma samples [LDL] determination was done on a Roche/Hitachi Cobas c 701/702 system which automatically calculate the analyte concentration of each sample. Samples containing precipitates are centrifuged before performing the assay.

[1] = Study 1 12 weeks results, 200 mg q.d., week 2
[2] = Study 1 12 weeks results, 200 mg q.d., week 4
[3] = Study 1 12 weeks results, 200 mg q.d., week 8
[4] = Study 1 12 weeks results, 200 mg q.d., week 12
[5] = Study 1 12 weeks results, 2 x 25 mg b.i.d., week 1
[6] = Study 1 12 weeks results, 2 x 25 mg b.i.d., week 2
[7] = Study 1 12 weeks results, 2 x 25 mg b.i.d., week 4
[8] = Study 1 12 weeks results, 2 x 25 mg b.i.d., week 8
[9] = Study 1 12 weeks results, 2 x 25 mg b.i.d., week 12
[10] = Study 1 12 weeks results, 2 x 50 mg b.i.d., week 1
[11] = Study 1 12 weeks results, 2 x 50 mg b.i.d., week 2
[12] = Study 1 12 weeks results, 2 x 50 mg b.i.d., week 4
[13] = Study 1 12 weeks results, 2 x 50 mg b.i.d., week 8
[14] = Study 1 12 weeks results, 2 x 50 mg b.i.d., week 12
[15] = Study 1 12 weeks results, 2 x 100 mg b.i.d., week 1
[16] = Study 1 12 weeks results, 2 x 100 mg b.i.d., week 2
[17] = Study 1 12 weeks results, 2 x 100 mg b.i.d., week 4
[18] = Study 1 12 weeks results, 2 x 100 mg b.i.d., week 8
[19] = Study 1 12 weeks results, 2 x 100 mg b.i.d., week 12
[20] = Study 1 24 weeks results, continued 50 mg q.d., week 1
[21] = Study 1 24 weeks results, continued 50 mg q.d., week 2
[22] = Study 1 24 weeks results, continued 50 mg q.d., week 4
[23] = Study 1 24 weeks results, continued 50 mg q.d., week 8
[24] = Study 1 24 weeks results, continued 50 mg q.d., week 12
[25] = Study 1 24 weeks results, continued 50 mg q.d., week 16
[26] = Study 1 24 weeks results, continued 50 mg q.d., week 20
[27] = Study 1 24 weeks results, continued 50 mg q.d., week 24
[28] = Study 1 24 weeks results, continued 100 mg q.d., week 1
[29] = Study 1 24 weeks results, continued 100 mg q.d., week 2
[30] = Study 1 24 weeks results, continued 100 mg q.d., week 4
[31] = Study 1 24 weeks results, continued 100 mg q.d., week 8
[32] = Study 1 24 weeks results, continued 100 mg q.d., week 12
[33] = Study 1 24 weeks results, continued 100 mg q.d., week 16
[34] = Study 1 24 weeks results, continued 100 mg q.d., week 20
[35] = Study 1 24 weeks results, continued 100 mg q.d., week 24
[36] = Study 1 24 weeks results, continued 200 mg q.d., week 24
[37] = Study 1 24 weeks results, placebo switched to 50 mg b.i.d at week 12, week 16
[38] = Study 1 24 weeks results, placebo switched to 50 mg b.i.d at week 12, week 20
[39] = Study 1 24 weeks results, placebo switched to 50 mg b.i.d at week 12, week 24

## O=C(Nc1nc2cccc(-c3ccc(CN4CCS(=O)(=O)CC4)cc3)n2n1)C1CC1 [Compound 1, cyclopropanecarboxylic acid {5-[4-(1,1-dioxo-thiomorpholin-4-ylmethyl)-phenyl]-[1,2,4]triazolo[1,5-a]pyridin-2yl}-amide]
[1]
  [LDL] Mean CFB: 0.11 mmol/L
  [LDL] Median CFB: 0.13 mmol/L
[2]
  [LDL] Mean CFB: 0.13 mmol/L
  [LDL] Median CFB: 0.09 mmol/L
[3]
  [LDL] Mean CFB: 0.16 mmol/L
  [LDL] Median CFB: 0.18 mmol/L
[4]
  [LDL] Mean CFB: 0.19 mmol/L
  [LDL] Median CFB: 0.14 mmol/L
[5]
  [LDL] Mean CFB: 0.04 mmol/L
  [LDL] Median CFB: 0.05 mmol/L
[6]
  [LDL] Mean CFB: 0.04 mmol/L
  [LDL] Median CFB: 0.09 mmol/L
[7]
  [LDL] Mean CFB: -0.01 mmol/L
  [LDL] Median CFB: -0.01 mmol/L
[8]
  [LDL] Mean CFB: -0.05 mmol/L
  [LDL] Median CFB: 0.01 mmol/L
[9]
  [LDL] Mean CFB: 0.07 mmol/L
  [LDL] Median CFB: 0.05 mmol/L
[10]
  [LDL] Mean CFB: 0.10 mmol/L
  [LDL] Median CFB: 0.17 mmol/L
[11]
  [LDL] Mean CFB: 0.04 mmol/L
  [LDL] Median CFB: 0.1 mmol/L
[12]
  [LDL] Mean CFB: 0.14 mmol/L
  [LDL] Median CFB: 0.05 mmol/L
[13]
  [LDL] Mean CFB: 0.07 mmol/L
  [LDL] Median CFB: 0.10 mmol/L
[14]
  [LDL] Mean CFB: 0.05 mmol/L
  [LDL] Median CFB: 0.02 mmol/L
[15]
  [LDL] Mean CFB: 0.20 mmol/L
  [LDL] Median CFB: 0.18 mmol/L
[16]
  [LDL] Mean CFB: 0.15 mmol/L
  [LDL] Median CFB: 0.08 mmol/L
[17]
  [LDL] Mean CFB: 0.17 mmol/L
  [LDL] Median CFB: 0.12 mmol/L
[18]
  [LDL] Mean CFB: 0.31 mmol/L
  [LDL] Median CFB: 0.22 mmol/L
[19]
  [LDL] Mean CFB: 0.27 mmol/L
  [LDL] Median CFB: 0.26 mmol/L
[20]
  [LDL] Mean CFB: 0.00 mmol/L
  [LDL] Median CFB: -0.01 mmol/L
[21]
  [LDL] Mean CFB: -0.02 mmol/L
  [LDL] Median CFB: 0.02 mmol/L
[22]
  [LDL] Mean CFB: 0.02 mmol/L
  [LDL] Median CFB: -0.01 mmol/L
[23]
  [LDL] Mean CFB: 0.08 mmol/L
  [LDL] Median CFB: 0.13 mmol/L
[24]
  [LDL] Mean CFB: 0.16 mmol/L
  [LDL] Median CFB: 0.14 mmol/L
[25]
  [LDL] Mean CFB: 0.15 mmol/L
  [LDL] Median CFB: 0.12 mmol/L
[26]
  [LDL] Mean CFB: 0.14 mmol/L
  [LDL] Median CFB: 0.20 mmol/L
[27]
  [LDL] Mean CFB: 0.13 mmol/L
  [LDL] Median CFB: 0.14 mmol/L
[28]
  [LDL] Mean CFB: 0.11 mmol/L
  [LDL] Median CFB: 0.10 mmol/L
[29]
  [LDL] Mean CFB: 0.01 mmol/L
  [LDL] Median CFB: 0.02 mmol/L
[30]
  [LDL] Mean CFB: 0.13 mmol/L
  [LDL] Median CFB: 0.13 mmol/L
[31]
  [LDL] Mean CFB: 0.03 mmol/L
  [LDL] Median CFB: 0.04 mmol/L
[32]
  [LDL] Mean CFB: 0.12 mmol/L
  [LDL] Median CFB: 0.13 mmol/L
[33]
  [LDL] Mean CFB: -0.01 mmol/L
  [LDL] Median CFB: 0.03 mmol/L
[34]
  [LDL] Mean CFB: -0.01 mmol/L
  [LDL] Median CFB: 0.02 mmol/L
[35]
  [LDL] Mean CFB: 0.03 mmol/L
  [LDL] Median CFB: 0.03 mmol/L
[36]
  [LDL] Mean CFB: 0.13 mmol/L
  [LDL] Median CFB: 0.17 mmol/L
[37]
  [LDL] Mean CFB: 0.07 mmol/L
  [LDL] Median CFB: 0.16 mmol/L
[38]
  [LDL] Mean CFB: 0.13 mmol/L
  [LDL] Median CFB: 0.06 mmol/L
[39]
  [LDL] Mean CFB: -0.01 mmol/L
  [LDL] Median CFB: 0.22 mmol/L
Increased from 25 mg b.i.d. to 50 mg b.i.d at 12 weeks, week 1
  [LDL] Mean percentage CFB - 24 weeks results: 2.10%
Increased from 25 mg b.i.d. to 50 mg b.i.d at 12 weeks, week 2
  [LDL] Mean percentage CFB - 24 weeks results: 4.27%
Increased from 25 mg b.i.d. to 50 mg b.i.d at 12 weeks, week 4
  [LDL] Mean percentage CFB - 24 weeks results: −3.29%
Increased from 25 mg b.i.d. to 50 mg b.i.d at 12 weeks, week 8
  [LDL] Mean percentage CFB - 24 weeks results: −5.79%
Increased from 25 mg b.i.d. to 50 mg b.i.d at 12 weeks, week 12
  [LDL] Mean percentage CFB - 24 weeks results: −0.19%
Increased from 25 mg b.i.d. to 50 mg b.i.d at 12 weeks, week 16
  [LDL] Mean percentage CFB - 24 weeks results: 3.55%
Increased from 25 mg b.i.d. to 50 mg b.i.d at 12 weeks, week 20
  [LDL] Mean percentage CFB - 24 weeks results: −8.82%
Increased from 25 mg b.i.d. to 50 mg b.i.d at 12 weeks, week 24
  [LDL] Mean percentage CFB - 24 weeks results: 2.65%
Increased from 50 mg q.d. to 100 mg q.d. at 12 weeks, week 1
  [LDL] Mean percentage CFB - 24 weeks results: 0.31%
Increased from 50 mg q.d. to 100 mg q.d. at 12 weeks, week 2
  [LDL] Mean percentage CFB - 24 weeks results: 4.52%
Increased from 50 mg q.d. to 100 mg q.d. at 12 weeks, week 4
  [LDL] Mean percentage CFB - 24 weeks results: −1.68%
Increased from 50 mg q.d. to 100 mg q.d. at 12 weeks, week 8
  [LDL] Mean percentage CFB - 24 weeks results: 1.20%
Increased from 50 mg q.d. to 100 mg q.d. at 12 weeks, week 12
  [LDL] Mean percentage CFB - 24 weeks results: 2.96%
Increased from 50 mg q.d. to 100 mg q.d. at 12 weeks, week 16
  [LDL] Mean percentage CFB - 24 weeks results: 4.69%
Increased from 50 mg q.d. to 100 mg q.d. at 12 weeks, week 20
  [LDL] Mean percentage CFB - 24 weeks results: 3.51%
Increased from 50 mg q.d. to 100 mg q.d. at 12 weeks, week 24
  [LDL] Mean percentage CFB - 24 weeks results: 4.92%
Placebo switched to 50 mg b.i.d at week 12, week 16
  [LDL] Mean percentage CFB - 24 weeks results: 4.13%
Placebo switched to 50 mg b.i.d at week 12, week 20
  [LDL] Mean percentage CFB - 24 weeks results: 6.69%
Placebo switched to 50 mg b.i.d at week 12, week 24
  [LDL] Mean percentage CFB - 24 weeks results: 2.68%
Placebo switched to 100 mg q.d. at week 12, week 16
  [LDL] Mean percentage CFB - 24 weeks results: −2.85%
Placebo switched to 100 mg q.d. at week 12, week 20
  [LDL] Mean percentage CFB - 24 weeks results: −1.07%
Placebo switched to 100 mg q.d. at week 12, week 24
  [LDL] Mean percentage CFB - 24 weeks results: −8.19%
